Tests used:
ZDF rat [1] = test: Combination treatment with Troglitazone and Compound G or Compound J in the ZDF rat - blood glucose; format: in vivo, Zucker Diabetic Fatty (ZDF) rat; details: for Blood Glucose, Day 0: baseline
Procedure: At 11 weeks of age, animals with blood glucose >500 mg/dl were selected and divided into 4 treatment groups (n=8/group). […] Blood glucose levels were measured in tail vein samples by means of a HemoCue glucose analyzer (HemoCue Inc., Mission Viejo, CA). Values are expressed as the mean plus or minus the standard error of the mean. Differences between groups were evaluated by analysis of variance with the Tukey-Kramer post hoc test.

ZDF rat [2] = details: in vivo
Procedure: At 11 weeks of age, animals with blood glucose >500 mg/dl were selected and divided into 4 treatment groups (n=8/group). […] Values are expressed as the mean plus or minus the standard error of the mean. Differences between groups were evaluated by analysis of variance with the Tukey-Kramer post hoc test.
Plasma was prepared by centrifugation and triglyceride levels then measured by means of a standard assay kit according to the instructions of the manufacturer (Sigma Chemical Company). Differences between groups were evaluated by analysis of variance with the Tukey-Kramer post hoc test. Results are considered significant with p<0.05.

[3] = Hepatic and plasma drug metabolite levels after Compound A p.o. in rats; format: in vivo, SpragueDawley rats; details: after Compound A 250 mg/kg by oral gavage; 8 hours sampling
Procedure: Compound A was administered by oral gavage to freely-feeding SpragueDawley rats (250-300g). The compound was prepared as a suspension in carboxymethylcellulose, and administered at a dose of 250 mg/kg. For the determination of liver metabolites, rats were serially sacrificed over the course of 24 hours after drug administration. Livers were freeze-clamped, homogenized in perchloric acid, neutralized, and then analyzed for Compound B by anion exchange HPLC.
For the determination of plasma metabolites, rats were instrumented with carotid catheters prior to oral dosing. Blood samples were withdrawn via the catheters at appropriate time points over the course of 8 hours post drug administration. Plasma was prepared from the blood samples by centrifugation, and plasma protein precipitated by the addition of methanol to 60%. Compound A metabolites were quantitated by reverse phase HPLC in the deproteinated plasma samples. A C18 column (1.4 cm X 250 mm) was equilibrated with 10 mM sodium phosphate, pH 5.5 and eluted with a gradient from this buffer to acetonitrile. Detection was at 254 nm.

[4] = Oral Bioavailability Determination (urinary excretion method); format: in vivo, Sprague Dawley rats; details: rat, oral 10-40 mg/kg vs intravenous parent, 24 hours urine
Procedure: The oral bioavailability of prodrugs and parent compounds was determined by the urinary excretion method in the rat. Prodrugs were dissolved in 10% ethanol/90% polyethylene glycol (mw 400) and administered by oral gavage at doses of 10 to 40 mg/kg parent compound equivalents to 6-hour fasted, Sprague Dawley rats (220-240 g). Parent compounds were typically dissolved in deionized water, neutralized with sodium hydroxide, and then administered orally at 10-40 mg/kg or intravenously at ~10 mg/kg. The rats were subsequently placed in metabolic cages and urine was collected for 24 hours. The quantity of parent compound excreted into urine was determined by HPLC analysis as described in Example F. Analysis was performed as described in Example F. For prodrugs, the percentage oral bioavailability was estimated by comparison of the recovery in urine of the parent compound generated from the prodrug administered orally, to that recovered in urine following intravenous administration of the corresponding parent compound. For parent compounds, the percentage oral bioavailability was estimated by comparison of the recovery in urine of the parent compound when administered orally to that recovered when administered intravenously.

type 2 diabetics = details: clinic; cited from earlier work
db/db Mouse = test: Combination treatment with Troglitazone and Compound G in the db/db mouse - blood glucose; details: db/db mice, baseline
Procedure: Male db/db mice were purchased at 8 weeks of age from Jackson Labs (Bar Harbor, Maine). […] At 10 weeks of age, animals with blood glucose >400 mg/dl and <900 mg/dl were selected and divided into 4 treatment groups (n=5-6/group). […] Treatment was for 18 days. […] Blood glucose levels were measured in tail vein samples by means of a HemoCue glucose analyzer (HemoCue Inc., Mission Viejo, CA). Values are expressed as the mean plus or minus the standard error of the mean. Differences between groups were evaluated by analysis of variance with the Tukey-Kramer post hoc test. Results are considered significant with p<0.05.

Rat Hepatocytes = test: Inhibition of Glucose Production and Elevation of Fructose-1,6-Bisphosphate Levels in Rat Hepatocytes; format: cell-based
Procedure: Hepatocytes were prepared from fed Sprague-Dawley rats (250-300 g) according to the procedure of Berry and Friend (Berry, M.N., Friend, D.S., 1969, J. Cell. Biol. 43, 506-520) as modified by Groen (Groen, A.K., Sips, H.J., Vervoom, R.C., Tager, J.M. , 1982, Eur. J. Biochem. 122, 87-93). Hepatocytes (75 mg wet weight/ml) were incubated in 1 ml Krebs-bicarbonate buffer containing 10 mM Lactate, 1 mM pyruvate, 1 mg/ml BSA, and test compound concentrations from 0 to 500 µM. Incubations were carried out in a 95% oxygen, 5% carbon dioxide atmosphere in closed, 50-ml Falcon tubes submerged in a rapidly shaking water bath (37°C). After 1 hour, an aliquot (0.25 ml) was removed, transferred to an Eppendorf tube and centrifuged. 50 µl of supernatant was then assayed for glucose content using a Sigma Glucose Oxidase kit as per the manufacturer's instructions.
Rat hepatocytes were isolated and incubated as described in Example C. Cell extracts, were analyzed for glucose content as described in Example C, and also for fructose 1,6-bisphosphate. Fructose 1,6-bisphosphate was assayed spectrophotometrically by coupling its enzymatic conversion to glycerol 3-phosphate to the oxidation of NADH, which was monitored at 340 nm. […] After a 30 minute preincubation at 37°C, 1 unit/mi of aldolase was added and the change in absorbance measured until a stable value was obtained. […]

[5] = Troglitazone-Compound J study, Troglitazone 0.2%, Compound J 0.4%

**Q.** With CCOC(=O)[C@H](C)NP(=O)(N[C@@H](C)C(=O)OCC)c1ccc(-c2nc(N)sc2CC(C)C)o1 [Compound J, 2-Amino-5-isobutyl-4-{2-[5-(N,N'-bis((S)-1-ethoxycarbonyl)ethyl)phosphonamido]furanyl}thiazole] as the compound, how does the “Blood Glucose, Day 0” value (ZDF rat [1]; [5]) read?
**A.** The value was 674 ± 20 mg/dL.

**Q.** And the “Blood Glucose, Day 21” value (ZDF rat [1]; [5])?
**A.** The value was 452 ± 40 mg/dL.

**Q.** And the “blood glucose lowering, pilot studies” value (ZDF rat [1]; ZDF rat, food admixture dose finding)?
**A.** Its value is “trend (not significant) towards more pronounced blood glucose lowering at 0.4% than at 0.2%”.

**Q.** What about the “elevation of plasma triglycerides” value (ZDF rat [2]) of the same compound?
**A.** Its value is roughly 2 fold.

**Q.** With NC(=O)c1ncn([C@@H]2O[C@H](CO)[C@@H](O)[C@H]2O)c1Br [5-bromo-1-βD-ribofuranosyl-imidazole-carboxamide] as the compound, how does the detection in plasma [3] read?
**A.** The detection in plasma was “detectable”.

**Q.** With CSc1nc(-c2ccc(P(=O)(O)O)o2)c(CC(C)C)s1 [Compound H, 2-Methylthio-5-isobutyl-4-[2-(5-phosphono)furanyl]thiazole] as the compound, how does the “Oral bioavailability, %” value [4] read?
**A.** The value was 4%.

**Q.** Which “Blood Glucose, Day 0” value (ZDF rat [1]; Troglitazone-Compound G study, 0.2% food admixtures) does the source give for Cc1c(C)c2c(c(C)c1O)CCC(C)(COc1ccc(CC3SC(=O)NC3=O)cc1)O2 (stereo not shown) [Troglitazone] here?
**A.** Its value is 655 ± 33 mg/dL.

**Q.** And the “hepatotoxicity, elevation of liver enzymes” value (type 2 diabetics)?
**A.** The value was 1 % of patients.

**Q.** And the “Blood Glucose, Day 0” value (db/db Mouse)?
**A.** The value was 710 ± 44 mg/dL.

**Q.** For CCc1cc(F)c(N)c2nc(-c3ccc(P(=O)(O)O)o3)n(CC(C)C)c12 [Compound E], which “intracellular fructose 1,6-bisphosphate” value (Rat Hepatocytes) is on record?
**A.** The value was “dose-dependent elevation”.

From patent EP1552850A2, “A combination of FBPase inhibitors and insulin sensitizers for the treatment of diabetes” (priority 1998, dated 2000)
